The text below walks through data of patent US20220401385A1, “Combination Therapy Based on PD-1 Signaling Inhibitors” (Kyoto University, priority 2019, published 2022).

Molecules are shown by their SMILES.

Experiment [1] relates to AMPK and mTOR signaling. As to the kind of experiment: Western blotting of AMPK and mTOR signaling, CD44 high cells. The settings on record: SPD 0.2 μM, 1 hour and 2 hours. Format: cell-based, mice. As to the method:
FIG. 5 CD8^+ T cells were isolated from the spleen of mice without tumor inoculation, and further isolated into CD44^+ (CD44 high) and CD44^− (CD44 low) cell populations. a) CD44 low cells were simulated with CD3/CD28 antibody beads and SPD (0.2 μM). […] Protein expression levels after 1 hour and 2 hours were confirmed by western blotting with the respective indicated antibodies. As regards statistical analysis, t-test was used for comparison of two groups. * p<0.05, ** p<0.01, *** p<0.001, **** p<0.0001.
CD8^+ T cells were isolated using mouse CD8 Microbeads (Miltenyi Biotec or Mojo). After washing with PBS twice, 2×10^6 cells were solubilized in a lysis buffer containing 30 mM Tris-HCl (pH. 7.4), 150 mM NaCl, 10% glycerol, 0.1% SDS, 1% Triton-X-100, 0.05% Na-Doc, 5 mM EDTA (pH. 8.0), protease inhibitor mixture (Roche Molecular Biochemicals) and phosphatase inhibitors (Nacalai Tesque). After measurement of protein concentrations by DC protein assay (Bio-Rad), 4 μg of proteins was mounted on 4 to 20% gradient Mini-PROTEAN TGX Gels (Bio-Rad) and electroblotted onto nitrocellulose membranes, which were then incubated in a blocking buffer of TBS containing 1% BSA. Primary antibody incubations were carried out overnight at 4° C. in blocking buffer. After washing, secondary antibody incubations were carried out at room temperature for 40 min in blocking buffer. […]

For experiment [2], the system named is CD8+ T cells. As to the kind of experiment: Flow cytometry of draining lymph node and tumor-infiltrating CD8+ T cells of treated MC38 mice. The class given is in vivo, C57BL/6 mice. The procedure: FIG. 1-1 a) CD8^+ T cells or CD3^+ T cells were isolated from mice, and 2×10^5 cells were stimulated with CD3/CD28 beads in 96-well U plates. After 24 hours and 48 hours, cells and culture supernatant were collected, followed by measurement of spermidine (SPD) concentration by mass spectrometry. […] Ten days after inoculation, PD-L1 antibody (2 mg/kg), PD-L1 antibody+SPD (2 mg/kg), or SPD alone was administered. Subsequently, PD-L1 antibody was administered 4 times at a regular interval of 5 days, and SPD was administered 8 times at a regular interval of 3 days. Tumor growth curve and survival curve are shown. c) Draining lymph nodes (DLNs) of mice were isolated 13 days after tumor inoculation, and stained with antibodies to CD8, CD44 and CD62L. The number of cells in draining lymph node (cells/DLN) in each treatment group is shown at the left side. After being gated, CD8^+ T cells were fractionated with CD44 and CD62L into P1 to P4 cell populations. Percentages and cell numbers of P1 to P4 in each treatment group are shown. d) Tumor was isolated 13 days after tumor inoculation and treated with collagenase. Percentages and numbers per mg tumor of tumor-infiltrating CD8^+ CD45.2^+ cells are shown. For statistical analysis, ANOVA was used. * p<0.05, ** p<0.01, *** p<0.001, **** p<0.0001.
FIG. 2-1 a) Treated mice were analyzed for draining lymph nodes and the inside of tumor. Briefly, draining lymph nodes of mice were isolated 13 days after tumor inoculation, and stained with antibodies to CD8 and Sca-1. FACS diagram and percentages of Sca-1^+ cells in CD8^+ T cells are shown. b) CD8^+ T cells in isolated draining lymph nodes were stimulated with CD3/CD28 antibody beads. After 24 hours, cell proliferation was examined by means of ^3H uptake. At the same time, IFN-γ concentration in culture supernatant was measured. c) Tumor from the same mice as described above was treated with collagenase. Then, expression rates of PD-1 and Tim3 in tumor-infiltrating CD8^+ T cells were analyzed. d) Oxygen consumption rate (OCR) and extracellular acidification rate (ECAR) of draining lymph node CD8^+ T cells were measured with a Seahorse analyzer (N=3 wells). For statistical analysis, ANOVA was used. * p<0.05, ** p<0.01, *** p<0.001, **** p<0.0001.
For analyzing draining lymph nodes, cells from axillary, brachial, and inguinal lymph nodes on the right side of tumor-inoculated mice were harvested and mixed. Averaged cell numbers per one lymph node were used as absolute cell numbers. For tumor analysis, tumor tissues were minced into 2- to 3-mm pieces with scissors and digested with collagenase type IV (Thermo Fisher Scientific) using a gentle MACS Dissociator (Miltenyi Biotec). The numbers of tumor cells per mg were used as absolute numbers.
The following antibodies recognizing the indicated antigens were used: CD44 (1M7), CD45.2 (104), CD45.1 (A20), CD8 (53-6.7), CD62L (MEL-14) and Sca-1 (D7) from BioLegend. All flow cytometry experiments were performed on FACS Canto II (BD Biosciences) and analyzed using FlowJo software (FLOWJO, LLC). Apoptosis assay was performed with PI (Sigma) and Annexin (BioLegend) following the instructions on the kits.

The mark [3] stands for this setting: SPD + PD-1 inhibitory antibody, 13 days after tumor inoculation.
Setting [4] is: combination therapy, 13 days after tumor inoculation.

Consider `NCCCCNCCCN` [SPD, spermidine], for which the “expression levels of pAMPK and its downstream molecules (pACC, pPKCa)” value in experiment [1] is given as “markedly high”. Further, in experiment [2] (setting [3]), the “absolute number of effector T cells (P3) in draining lymph nodes” value is “increase”, the “cell number of the draining lymph nodes” value is given as “increase” and the “frequency of effector T cells (P3) in draining lymph nodes” value was “increase”. In experiment [2] (combination therapy using SPD), the “expression of Sca-1 (activation marker) in draining lymph node CD8+ T cells” value is on record as “enhanced” and the “frequency of exhausted CD8+ T cells (CD8+ PD-1+ Tim-3+), tumor-infiltrating” value is listed as “decreased significantly”. Also, in experiment [2] (setting [4]), the “frequency of tumor-infiltrating CD8+ T cells” value is listed as “increased” and the “number of tumor-infiltrating CD8+ T cells” value is listed as “increased”.
